Results on three compounds are retold here after patent US11851447B2, “Dinuclear platinum(II) compounds and methods of use thereof” (UNIVERSITY OF IOWA RESEARCH FOUNDATION, priority 2019, dated 2023).

Counter-ions that a name gives are not always drawn. Like-named read-outs stand apart in the source and are kept apart here.

For test [1], the target named is DNAse I. As to the kind of experiment: DNAse I inhibitor assay based on NIR emission of 4/QIII ensemble. Particulars: [4]=4 μM, [QIII]=8 μM, [DNAse I]=4 U/ml, NIR emission at 785 nm; read-out: IC50 (DNAse I inhibition). Type of test: biochemical. As for the experimental part:
General Procedure for Multiwell DNAse I Assay. A reaction mixture (total volume of 100 μL) containing 4 (4 μM) and QIII (8 μM) was prepared in 9:1 Tris buffer (10 mM Tris-HCl, 0.25 mM MgCl2, 0.1 mM CaCl2, pH 7.5):DMSO. Tris buffer was prepared using nuclease-free water. The reaction mixtures were prepared in white 96-well plates (Costar, Corning, NY) and incubated at room temperature for 2 min. Varying concentrations of DNAse I prepared in Tris buffer (10 mM Tris-HCl, 0.25 mM MgCl2, 0.1 mM CaCl2, pH 7.5) were added to the reaction mixture and incubated at room temperature for 10 min. Fluorescence spectra were obtained using Agilent Cary Eclipse fluorescence spectrophotometer, λex=445 nm. NIR emission intensity at 785 nm was detected.
Determination of IC50 Values of DNAse I Inhibitors. DNAse I assay was performed as previously described in the presence of DNAse I (4 U) and various concentrations of the inhibitor. Stock solutions of the inhibitors were prepared in Tris buffer (10 mM Tris-HCl, pH 7.5). The IC50 values were calculated by plotting log[inhibitor] versus NIR emission intensity of 4. The dose-response curves were analyzed by nonlinear regression using GraphPad Prism 8.0 (GraphPad Software, Inc., La Jolla, CA, USA).

For test [2], the target named is DNAse I. To be noted: previously reported values (Jang et al., J. Biomol. Screen. 2015); cited from earlier work.

In the case of `O=C(O)CN(CCN(CC(=O)O)CC(=O)O)CC(=O)O` [EDTA], the IC50 in test [1] is 202 µM; in test [2], 190 µM.

Regarding `N=C(N)NNc1ccc(NNC(=N)N)cc1` [JR-132, 1,4-phenylene-bis-aminoguanidine hydrochloride], the IC50 in test [1] is 2.29 µM; in test [2], 2.73 µM.

Regarding `[Cl-].[Cl-].[Zn+2]` [ZnCl2], the IC50 in test [1] is 20.7 µM; in test [2], 18 µM.
